Peptide text beside a SMILES is read from it.
How the values were obtained:
[1] = system: putative adipokinetic hormone/corazonin-related peptide receptor (ACPR); assay: Receptor assay with putative ACPR; type: cell-based, Carcinus maenas
Experimental: (§1) Chinese hamster ovary (CHO-K1) cells containing stably expressed apoaequorin (Perkin Elmer, Boston, MA) and either Gα16 or Gq subunit (control cells) were cultured in Dulbecco's Modified Eagle Medium (DMEM) F-12 Nutrient Mixture GlutaMax (Gibco®) supplemented with 10% fetal bovine serum (Gibco®). Cells were maintained in vented T75 flasks at 37°C in 5% CO2.
Cells grown in a monolayer to approximately 60% confluency in T75 flasks were transfected with pcDNA3.1 constructs using FugeneHD (Promega) according to the manufacturer's recommendations. Briefly, transfection medium was prepared by combining 800 μl Opti-MEM® (Gibco) with 10 μg vector and 30 μl Fugene HD in a 2 ml polystyrene tube and incubated for 10 min at room temperature. […]
On the day of the assay, cells were detached from the culture flask by incubating for 12 min in 5 ml 0.2% EDTA in PBS. […] Cell suspensions were gently stirred and injected in 50 μl aliquots into each well using a Mithras LB 940 microplate reader (Berthold Technologies, Bad-Wildbad, Germany) and light emission (Ca^2+ response) recorded for 30 s. Cells were then lysed by injection of 0.3% Triton-X in BSA medium and light emission recorded for a further 10 s to measure total Ca^2+ response. […] Data was analyzed using MikroWin v5.18 (Mikrotek Laborsysteme GmbH) and SigmaPlot v.13 (Systat Software, Inc.). […]

[2] = system: semi-isolated heart; assay: Cardioactivity on semi-isolated heart preparations; parameters: species or system Carcinus maenas; conditions: superfusion
Experimental: Cardioactivity of […], and ACP was performed on semi-isolated heart preparations of C. maenas. Crabs (ca. 65 mm carapace width) were ice-anesthetized and rapidly decerebrated before removing all limbs and the dorsal carapace to expose the heart and pericardial cavity. The heart was connected to a force transducer (MLT0210/A) via a micro fishing hook (size 28) and fine nylon (0.08 mm) monofilament. Connection to a PC with Chart 4.0 was via a Bridge Pod (ML301) and Powerlab 4/20 (AD Instruments Pty Ltd, Castle Hill, NSW, Australia). Transducer gain was set at maximum sensitivity (200 μV). Heart preparations were initially perfused with C. maenas physiological saline (Saver et al., [1999]) at room temperature (20°C). Once a stable heart output was achieved, hearts were firstly perfused with 1 ml saline, followed by increasing concentrations of peptides, applied in 1 ml. Crustacean cardioactive peptide (CCAP) (Bachem, Bubendorf, Switzerland), or proctolin (Sigma, Poole, UK) were positive controls (10^-11-10^-7 M). Test peptides ([…]) were perfused at 10^-8-10^-6 M for approximately 2 min at each concentration.

[3] = Hemolymph triglyceride levels after peptide injection; type: in vivo, Carcinus maenas
Experimental: (§2) Adipokinetic and glucose mobilizing activity of […] and ACP were performed by measurement of triglycerides in hemolymph ([…] et al., [2014]) and glucose (Chung and Webster, [1996]). Hemolymph samples (ca. 100 μl) were taken from crabs injected with each peptide at 0 and 90 min, and subsequently assayed.

[4] = target: T1, C. maenas RPCHR (red pigment concentrating hormone receptor) (Carcinus maenas, UniProt A0A2L0WQF2); assay: Aequorin luminescence Ca2+ mobilization in CHO-K1-Aeq cells transiently expressing RPCHR; type: cell-based; conditions: for EC50: CHO-K1-Aeq cells (without Gα16) transiently expressing RPCHR, luminescence response normalized to total Ca2+ response, dose response curves, means of n = 4; for binding to / activation of RPCHR: micromolar concentrations
T1 sequence (A0A2L0WQF2 1-529): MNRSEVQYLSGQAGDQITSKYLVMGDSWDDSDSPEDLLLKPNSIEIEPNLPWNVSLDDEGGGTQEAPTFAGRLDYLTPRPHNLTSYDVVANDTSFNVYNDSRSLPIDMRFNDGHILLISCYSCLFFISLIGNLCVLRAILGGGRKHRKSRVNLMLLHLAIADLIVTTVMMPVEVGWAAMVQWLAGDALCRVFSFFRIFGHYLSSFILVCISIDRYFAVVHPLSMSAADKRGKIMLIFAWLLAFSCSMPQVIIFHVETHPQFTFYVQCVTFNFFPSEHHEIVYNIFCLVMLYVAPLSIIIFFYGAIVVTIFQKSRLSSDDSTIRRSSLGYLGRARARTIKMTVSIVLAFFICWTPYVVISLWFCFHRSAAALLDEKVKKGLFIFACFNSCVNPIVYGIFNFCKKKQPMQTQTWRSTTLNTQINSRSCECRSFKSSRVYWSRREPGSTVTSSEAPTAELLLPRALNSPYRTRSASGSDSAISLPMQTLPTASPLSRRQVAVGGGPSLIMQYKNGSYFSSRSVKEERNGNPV
Experimental: as §1
(§3) Cells grown in a monolayer to approximately 60% confluency in T75 flasks were transfected with pcDNA3.1 constructs using FugeneHD (Promega) according to the manufacturer's recommendations. Briefly, transfection medium was prepared by combining 800 μl Opti-MEM® (Gibco) with 10 μg vector and 30 μl Fugene HD in a 2 ml polystyrene tube and incubated for 10 min at room temperature. The transfection reagent was added to 5 ml of fresh culture media and the cells incubated overnight at 37°C in 5% CO2. After 24 h, an additional 10 ml of culture media were added to the flasks and the cells returned to 37°C at 5% CO2 for a further overnight incubation.
(§4) On the day of the assay, cells were detached from the culture flask by incubating for 12 min in 5 ml 0.2% EDTA in PBS. The cells were washed with 10 ml DMEM clear DMEM/F-12 containing L-glutamine, 15 mM HEPES and moved to 50 ml centrifuge tubes. Cells were centrifuged for 5 min at 260 g and resuspended to a concentration of 5 × 10^6 cells ml^−1 in 0.2 μm filtered BSA medium (DMEM/F-12 containing L-glutamine, 15 mM HEPES + 0.1% BSA). Coelenterazine h (Invitrogen, Paisley, UK) was added to a concentration of 5 μM and the cells incubated for 4 h in the dark at room temperature whilst gently rocking. The cells were diluted 10-fold and incubated for a further 60 min before use in the assay. Synthetic peptides (GeneCust, Dudelange, Luxembourg) were reconstituted in 30% acetonitrile, dried in small aliquots by vacuum centrifugation and subsequently redissolved in BSA medium. Fifty microliter aliquots were then dispensed into quadruplicate wells of a white 96-well plate (OptiPlate, PerkinElmer). Cell suspensions were gently stirred and injected in 50 μl aliquots into each well using a Mithras LB 940 microplate reader (Berthold Technologies, Bad-Wildbad, Germany) and light emission (Ca^2+ response) recorded for 30 s. Cells were then lysed by injection of 0.3% Triton-X in BSA medium and light emission recorded for a further 10 s to measure total Ca^2+ response. BSA medium was used for blank measurements (6 replicate wells per plate) and mock transfection with empty vectors carried out for negative controls. Data was analyzed using MikroWin v5.18 (Mikrotek Laborsysteme GmbH) and SigmaPlot v.13 (Systat Software, Inc.). Receptor response was normalized against total Ca^2+ response.

[5] = Hemolymph glucose levels after peptide injection; type: in vivo, Carcinus maenas; conditions: injection 100, 10 pmol per crab
Experimental: as §2

[6] = system: red and black epidermal chromatophores, dactyl of the 5th walking leg; assay: Chromatophore pigment migration bioassay in vivo; parameters: species or system Carcinus maenas; conditions: for pigment migration (concentration) in red and black epidermal chromatophores: injection after 40 min dispersion with 5 pmol PDH, 0.1–100 pmol/crab for RPCH or AKH, 100 pmol/crab for CRZ or ACP, scored 5 and 20 min after injection
Experimental: Pigmentary effector activity of […], Locusta migratoria AKH-I, and ACP were measured in vivo, using small (15-20 mm carapace width) C. maenas. Crabs were firstly adapted to a white background, light intensity 300 lx for 1 h. Pigment dispersion of red and black chromatophores in the […] of the 5th walking leg were microscopically observed and indices of dispersion scored according to Hogben and Slome ([1931]). Red and black chromatophores were firstly fully dispersed by injection of 5 pmol C. maenas pigment dispersing hormone ([…]) in 10 μl saline into the hypobranchial sinus, using hand-drawn glass microcapillaries. Chromatophore dispersion indices were scored at 0, 20, 40 min. Peptides were then injected and chromatophores subsequently scored after 5 and 20 min.

[7] = Hemolymph triglyceride levels after peptide injection; type: in vivo, Carcinus maenas; conditions: lipid mobilization bioassay
[8] = target: T2, C. maenas CRZR (corazonin receptor) (Carcinus maenas, UniProt A0A2L0WQE5); assay: Aequorin luminescence Ca2+ mobilization in CHO-K1-Aeq cells transiently expressing CRZR; type: cell-based; conditions: for EC50: CHO-K1-Aeq cells (without Gα16) transiently expressing CRZR, luminescence response normalized to total Ca2+ response, dose response curves, means of n = 4; for bioluminescent response at CRZR compared with the homologous crab/insect ligand (Arg^7-CRZ): several independent experiments
T2 sequence (A0A2L0WQE5 1-617): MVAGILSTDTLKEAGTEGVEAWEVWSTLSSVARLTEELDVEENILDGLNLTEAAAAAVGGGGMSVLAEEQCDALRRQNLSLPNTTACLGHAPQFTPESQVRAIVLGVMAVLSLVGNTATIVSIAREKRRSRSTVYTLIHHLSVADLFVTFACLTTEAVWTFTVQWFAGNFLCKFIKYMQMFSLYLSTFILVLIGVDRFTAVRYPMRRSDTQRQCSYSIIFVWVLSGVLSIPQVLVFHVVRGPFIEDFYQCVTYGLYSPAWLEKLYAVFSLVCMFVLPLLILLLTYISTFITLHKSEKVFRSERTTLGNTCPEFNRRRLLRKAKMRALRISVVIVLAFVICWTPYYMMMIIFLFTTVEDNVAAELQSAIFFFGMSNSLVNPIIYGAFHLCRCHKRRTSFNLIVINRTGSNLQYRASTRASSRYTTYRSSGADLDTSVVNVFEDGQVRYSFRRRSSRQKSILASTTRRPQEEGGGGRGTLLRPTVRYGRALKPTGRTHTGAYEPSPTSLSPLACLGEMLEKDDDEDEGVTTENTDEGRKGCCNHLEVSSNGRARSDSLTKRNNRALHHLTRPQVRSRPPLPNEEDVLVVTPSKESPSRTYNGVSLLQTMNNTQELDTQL
Experimental: as §1, §3, §4

CC[C@H](C)[C@H](NC(=O)[C@@H]1CCC(=O)N1)C(=O)N[C@H](C(=O)N[C@@H](Cc1ccccc1)C(=O)N[C@@H](CO)C(=O)N[C@@H](CCCNC(=N)N)C(=O)N[C@@H](CO)C(=O)N[C@@H](Cc1c[nH]c2ccccc12)C(=O)N[C@H](C(=O)N1CCC[C@H]1C(=O)N[C@@H](CCC(N)=O)C(N)=O)C(C)C)[C@@H](C)O [ACP] (HELM PEPTIDE1{[Glp].I.T.F.S.R.S.W.V.P.Q.[am]}$$$$V2.0)
binding to putative ACPR [1]: did not bind
cardioacceleratory effect on semi-isolated hearts ([2]; concentrations up to 10^−6 M, 20°C): completely without cardioacceleratory effect
hemolymph triglyceride levels, 0 min ([3]; injection 100 pmol per crab, 0 min, mean ± 1 SEM, n = 6, SEM): 1.47 ± 0.44 µg/µL
hemolymph triglyceride levels, 90 min ([3]; injection 100 pmol per crab, 90 min, mean ± 1 SEM, n = 6, no significant change over 90 min, SEM): 1.28 ± 0.34 µg/µL
activity on circulating triglycerides ([3]; injection 100, 10 pmol per crab): neither CRZ nor ACP exhibited any biological activity
EC50 [4]: > 20000 nM
binding to / activation of RPCHR [4]: vanishingly small dose-dependent binding
activity on circulating glucose [5]: neither CRZ nor ACP exhibited any biological activity
pigment migration (concentration) in red and black epidermal chromatophores [6]: completely ineffective
effect on hemolymph diacylglycerol levels [7]: completely without effect

C[C@@H](O)[C@H](NC(=O)[C@H](Cc1c[nH]c2ccccc12)NC(=O)CNC(=O)[C@H](Cc1c[nH]cn1)NC(=O)[C@H](CO)NC(=O)[C@H](Cc1ccc(O)cc1)NC(=O)[C@H](CCC(N)=O)NC(=O)[C@H](Cc1ccccc1)NC(=O)[C@@H](NC(=O)[C@@H]1CCC(=O)N1)[C@@H](C)O)C(=O)N[C@@H](CC(N)=O)C(N)=O [His^7-CRZ] (HELM PEPTIDE1{[Glp].T.F.Q.Y.S.H.G.W.T.N.[am]}$$$$V2.0)
EC50 [8]: 0.3 nM
bioluminescent response at CRZR compared with the homologous crab/insect ligand (Arg^7-CRZ) [8]: somewhat higher bioluminescent response at lower doses

CC(C)C[C@H](NC(=O)[C@@H]1CCC(=O)N1)C(=O)N[C@@H](CC(N)=O)C(=O)N[C@@H](Cc1ccccc1)C(=O)N[C@H](C(=O)N1CCC[C@H]1C(=O)N[C@@H](CC(N)=O)C(=O)N[C@@H](Cc1c[nH]c2ccccc12)C(=O)NCC(=O)N[C@H](C(N)=O)[C@@H](C)O)[C@@H](C)O [Lom AKH-1, reference compound] (HELM PEPTIDE1{[Glp].L.N.F.T.P.N.W.G.T.[am]}$$$$V2.0)
EC50 [4]: 0.07 nM
pigment migration (concentration) in red and black epidermal chromatophores [6]: slightly less effective compared to RPCH

C[C@@H](O)[C@H](NC(=O)[C@H](Cc1c[nH]c2ccccc12)NC(=O)CNC(=O)[C@H](Cc1c[nH]cn1)NC(=O)[C@H](CO)NC(=O)[C@H](Cc1ccc(O)cc1)NC(=O)[C@@H](NC(=O)[C@H](Cc1ccccc1)NC(=O)[C@@H](NC(=O)[C@@H]1CCC(=O)N1)[C@@H](C)O)[C@@H](C)O)C(=O)N[C@@H](CC(N)=O)C(N)=O [Thr^4, His^7-CRZ] (HELM PEPTIDE1{[Glp].T.F.T.Y.S.H.G.W.T.N.[am]}$$$$V2.0)
EC50 [8]: 0.14 nM
bioluminescent response at CRZR compared with the homologous crab/insect ligand (Arg^7-CRZ) [8]: somewhat higher bioluminescent response at lower doses

GnRH: evolutionarily-related peptide (mammalian) GnRH, gonadotropin releasing hormone [reference compound]
binding to / activation of RPCHR [4]: Neither receptor was activated
activation of CRZR ([8]; even at micromolar concentrations): Neither receptor was activated

NSELINSILGLPKVMNDA-NH2 [PDH, C. maenas pigment dispersing hormone, reference compound]
pigment dispersion of chromatophores ([6]; injection of 5 pmol, over 40 min): expansion of both red and black chromatophores

proctolin [reference compound]
kind of response on semi-isolated hearts ([2]; positive control): very pronounced inotropic response
threshold response on semi-isolated hearts ([2]; positive controls, CCAP: most sensitive preparations): about 10^−9 M
